Measurements reported in patent US10647653B2, “Crystal of monovalent cation salt of 3-hydroxyisovaleric acid and process for producing the crystal” (KYOWA HAKKO BIO CO., LTD., priority 2015, dated 2020).
Read-outs that look alike come from different tables or passages of the source.

Assays:
[1] = assay type: physicochemical
Procedure: The sodium HMB nonhydrate obtained in Example 2 was mixed with a glucose-amino acids-electrolytes infusion solution for peripheral vain nutrition [pH: about 6.7; Product Name: Aminofluid Infusion Solution (Otsuka Pharmaceutical Factory, Inc.)] to obtain 0, 0.11, 0.21 and 0.42 weight/volume % solutions at final concentration in terms of free form. The light transmittance (660 nm) was measured by ultraviolet and visible spectrophotometer immediately after the mixing or 24 hours after being left at room temperature to evaluate the presence or absence of insoluble salt formation.

[2] = rat, in vivo
Procedure: The solution was continuously administered to a rat on which operative stress was incurred by intestinal tract scratch operation at a normal dose (240 mL/kg/day) for 3 days. On the final day of administration, urine was collected by 24-hour urine collection and measured for the urinary electrolyte concentration.

[3] = Mixing with 0.2 M phosphate buffer, light transmittance (660 nm) to evaluate insoluble salt formation; assay type: physicochemical
Procedure: A 100 g/L solution, in terms of free form, was prepared using the crystal of monovalent cation salt nonhydrate of HMB, obtained in each of Examples 2, 5 and 7, and mixed with 0.2 M phosphate buffer (pH: 6.80) in an arbitrary mixing ratio. The solution after mixing was measured for the light transmittance (660 nm) to evaluate the presence or absence of insoluble salt formation. In Table 13, “-” indicates unevaluated.

[4] = pH of aqueous solution of 100 g/L salt crystal in terms of free HMB; assay type: physicochemical
Procedure: As for pH, an aqueous solution of 100 g/L salt crystal in terms of free HMB was measured.

[5] = Measurement of solubility in water at room temperature (HMB concentration of supernatant by HPLC); assay type: physicochemical
Procedure: The crystal of monovalent cation salt nonhydrate of HMB, obtained in each of Examples 2, 5 and 7, was added at room temperature until it dissolved in water and after keeping the solution for a sufficient time under stirring, the supernatant containing no crystal was sampled and measured for the HMB concentration by using HPLC.

[6] = HMB final concentration 0.11 weight/volume % in Aminofluid, 0 h after addition
[7] = HMB final concentration 0.11 weight/volume % in Aminofluid, 24 h after addition, room temperature
[8] = HMB final concentration 0.21 weight/volume % in Aminofluid, 0 h after addition
[9] = HMB final concentration 0.42 weight/volume % in Aminofluid, 24 h after addition, room temperature
[10] = mixing ratio 0.33 Vol/Vol (aqueous 100 g/L HMB solution/0.2M phosphate buffer pH 6.80)
[11] = mixing ratio 0.57 Vol/Vol (aqueous 100 g/L HMB solution/0.2M phosphate buffer pH 6.80)
[12] = mixing ratio 0.17 Vol/Vol (aqueous 100 g/L HMB solution/0.2M phosphate buffer pH 6.80)

Row | Insoluble salt formation (in words) [1] | Transmittance T % (660 nm) [1, 6] [%] | Transmittance T % (660 nm) [1, 7] [%] | Transmittance T % (660 nm) [1, 8] [%] | Transmittance T % (660 nm) [1, 9] [%] | Transmittance T % (660 nm) [3, 10] [%] | Transmittance T % (660 nm) [3, 11] [%] | Insoluble salt formation (in words) ([3]; mixing with phosphate buffer) | pH [4] | Solubility [5] [mg/mL] | Solubility (in terms of free form) [5] [mg/mL] | Insoluble salt formation (in words) [3] | Transmittance T % (660 nm) [3, 12] [%] | Compound | Electrolyte abnormality (in words) [2] | Solubility in water compared to existing calcium salt (in words) [5] | other results
1 | forms an insoluble salt | 100 | 70 | 90 | 20 | 0.02 | 0 | produces an insoluble salt | – | – | – | – | – | CC(C)(O)CC(=O)[O-].CC(C)(O)CC(=O)[O-].O.[Ca+2] [Calcium HMB hydrate, reference compound] | induces the increase in urinary calcium and the decrease in urinary phosphate excretion | – | Transmittance T % (660 nm) ([3]; mixing ratio 0.01 Vol/Vol (aqueous 100 g/L HMB solution/0.2M phosphate buffer pH 6.80)): 60%
2 | – | – | – | – | – | 100 | 100 | – | 5.7 | 660 | 577 | do not form an insoluble salt | 100 | CC(C)(O)CC(=O)O.N [Example 7, ammonium HMB nonhydrate] | – | greatly enhanced in the solubility in water | –
3 | – | – | – | – | – | 100 | 100 | – | 7.9 | 1011 | 764 | do not form an insoluble salt | 100 | CC(C)(O)CC(=O)[O-].[K+] [Example 5, potassium HMB nonhydrate] | – | greatly enhanced in the solubility in water | –
4 | does not form an insoluble salt | 100 | 100 | 100 | 100 | 100 | 100 | do not form an insoluble salt | 7.9 | – | – | – | 100 | CC(C)(O)CC(=O)[O-].[Na+] [Example 2, sodium HMB nonhydrate] | does not induce the above electrolyte abnormality | – | Solubility ([5]; in water, room temperature): 729 mg/mL; Solubility in water compared to existing calcium salt (in words) ([5]; in water, room temperature): greatly enhanced in the solubility in water; Solubility (in terms of free form) ([5]; in water, room temperature, in terms of free HMB): 513 mg/mL; Transmittance T % (660 nm) ([1]; HMB final concentration 0.21 weight/volume % in Aminofluid, 24 h after addition, room temperature): 100%; Transmittance T % (660 nm) ([1]; HMB final concentration 0.42 weight/volume % in Aminofluid, 0 h after addition): 100%
